{"source": "patent US8124121B2", "about": "“Flavors, flavor modifiers, tastants, taste enhancers, umami or sweet tastants, and/or enhancers and use thereof” (Senomyx, Inc., priority 2003, dated 2012)", "data": [{"target": "T1, hT1R1/hT1R3 umami receptor (Homo sapiens, UniProt Q7RTX0+Q7RTX1)", "T1 construct": "expressed in transfected cells; host or cells: HEK293 derivative stably expressing Gα15, clone I-17, expression induced with mifepristone", "T1 sequence (Q7RTX1 21-841)": "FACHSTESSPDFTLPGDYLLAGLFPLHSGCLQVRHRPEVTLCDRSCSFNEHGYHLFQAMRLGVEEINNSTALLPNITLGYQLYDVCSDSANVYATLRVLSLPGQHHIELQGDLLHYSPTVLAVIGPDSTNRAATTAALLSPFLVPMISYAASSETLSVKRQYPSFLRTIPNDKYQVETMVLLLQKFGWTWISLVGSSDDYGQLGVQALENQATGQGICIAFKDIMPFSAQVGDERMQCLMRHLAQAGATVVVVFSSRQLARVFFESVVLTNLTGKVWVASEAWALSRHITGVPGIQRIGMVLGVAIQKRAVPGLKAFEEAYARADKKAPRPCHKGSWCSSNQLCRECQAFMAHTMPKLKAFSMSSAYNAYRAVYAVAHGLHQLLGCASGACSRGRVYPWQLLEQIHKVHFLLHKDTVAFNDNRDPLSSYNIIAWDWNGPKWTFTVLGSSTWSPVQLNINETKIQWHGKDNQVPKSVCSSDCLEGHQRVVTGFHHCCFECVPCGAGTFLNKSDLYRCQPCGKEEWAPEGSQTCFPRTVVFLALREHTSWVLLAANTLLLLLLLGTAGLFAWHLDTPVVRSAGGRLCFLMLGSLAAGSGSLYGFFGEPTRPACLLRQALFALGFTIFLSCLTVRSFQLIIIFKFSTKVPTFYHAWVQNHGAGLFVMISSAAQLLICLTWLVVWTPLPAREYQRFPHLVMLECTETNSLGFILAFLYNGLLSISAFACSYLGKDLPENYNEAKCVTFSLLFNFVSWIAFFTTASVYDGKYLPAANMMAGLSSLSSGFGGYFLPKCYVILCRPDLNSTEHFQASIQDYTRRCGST", "T1 sequence (Q7RTX0 21-852)": "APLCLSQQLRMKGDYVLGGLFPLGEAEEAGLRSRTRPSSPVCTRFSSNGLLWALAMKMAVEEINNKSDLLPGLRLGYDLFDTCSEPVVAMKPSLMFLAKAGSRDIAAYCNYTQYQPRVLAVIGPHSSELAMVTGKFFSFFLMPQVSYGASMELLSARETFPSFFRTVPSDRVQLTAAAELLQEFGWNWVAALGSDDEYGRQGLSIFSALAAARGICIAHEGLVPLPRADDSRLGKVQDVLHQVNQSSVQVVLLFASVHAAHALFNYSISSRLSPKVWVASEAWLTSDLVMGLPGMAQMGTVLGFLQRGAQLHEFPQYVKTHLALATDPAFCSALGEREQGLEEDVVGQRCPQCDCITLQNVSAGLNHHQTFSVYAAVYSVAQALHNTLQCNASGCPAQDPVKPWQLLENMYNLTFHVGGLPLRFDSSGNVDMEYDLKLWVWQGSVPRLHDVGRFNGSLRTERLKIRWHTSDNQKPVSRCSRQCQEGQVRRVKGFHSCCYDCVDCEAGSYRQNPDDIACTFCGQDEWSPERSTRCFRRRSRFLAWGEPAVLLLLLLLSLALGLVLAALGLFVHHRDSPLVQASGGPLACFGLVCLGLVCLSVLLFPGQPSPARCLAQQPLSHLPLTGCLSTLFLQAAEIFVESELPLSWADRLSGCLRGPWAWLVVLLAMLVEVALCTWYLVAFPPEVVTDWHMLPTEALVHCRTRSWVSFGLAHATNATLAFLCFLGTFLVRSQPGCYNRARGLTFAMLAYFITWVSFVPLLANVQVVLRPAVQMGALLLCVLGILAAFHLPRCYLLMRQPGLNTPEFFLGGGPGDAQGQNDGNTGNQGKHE", "experiment": "Umami taste enhancement activity assay (EC50 ratio vs. MSG)", "format": "cell-based", "details": "Table A; compound @ 0.3 uM", "experimental": "(§1) A series of measurements of the dose response is run in solutions comprising MSG alone, then a second dose response is run with MSG in combination with predetermined amounts of a candidate compound of Formula (I) at the same time.\n(§2) Typical compound concentrations tested were 30 μM, 10 μM, 3 μM, 1 μM, 0.3 μM, 0.1 μM and 0.03 μM. The relative efficacy of compounds of Formula (I) at enhancing the receptor was determined by calculating the magnitude of a shift in the EC50 for monosodium glutamate. Enhancement was defined as a ratio (EC50R) corresponding to the EC50 of monosodium glutamate, determined in the absence of the test compound, divided by the EC50 of monosodium glutamate, determined in the presence of the test compound.\n(§3) Stated alternatively, “EC50 ratio” as compared to MSG is calculated based on the following definitions: EC50 Ratio vs. MSG=EC50 (MSG)/EC50(MSG+[Compound]) • wherein “[compound]” refers to the concentration of the compound of Formula (I) used to elicit (or enhance or potentiate) the MSG dose response.", "values": [{"smiles": "CCC(COC)NC(=O)c1cc2cc(Cl)ccc2o1", "note": "(stereo not drawn) [Example A11, 5-chloro-N-(1-methoxybutan-2-yl)benzofuran-2-carboxamide]", "Ec50 ratio (vs. MSG)": 6.5}]}, {"target": "T1, hT1R1/hT1R3 umami receptor", "experiment": "Umami taste enhancement activity assay (EC50 ratio vs. MSG)", "format": "cell-based", "details": "Table A; compound @ 1 uM", "experimental": "as §1, §2, §3", "values": [{"smiles": "CCCC(CCC)NC(=O)c1cc2cc(OC)ccc2o1", "note": "[Example A10, N-(heptan-4-yl)-5-methoxybenzofuran-2-carboxamide]", "Ec50 ratio (vs. MSG)": 4.51}, {"smiles": "Cc1ccc(C(=O)NC2CCCc3ccccc32)s1", "note": "(stereo not drawn) [Example A39, 5-Methyl-thiophene-2-carboxylic acid (1,2,3,4-tetrahydro-naphthalen-1-yl)-amide]", "Ec50 ratio (vs. MSG)": 2.3}, {"smiles": "COc1cccc(C(=O)NC2CCCc3ccccc32)c1O", "note": "(stereo not drawn) [Example A87, 2-hydroxy-3-methoxy-N-(1,2,3,4-tetrahydronaphthalen-1-yl)benzamide]", "Ec50 ratio (vs. MSG)": 3.8}, {"smiles": "COc1cccc(C(=O)N[C@H]2CCCc3ccccc32)c1O", "note": "[Example A93, (S)-2-hydroxy-3-methoxy-N-(1,2,3,4-tetrahydronaphthalen-1-yl)benzamide]", "Ec50 ratio (vs. MSG)": 5.7}]}, {"target": "T1, hT1R1/hT1R3 umami receptor", "experiment": "Umami taste enhancement activity assay (EC50 ratio vs. MSG)", "format": "cell-based", "details": "Table C; compound Con. 0.3 uM", "experimental": "as §1, §2, §3", "values": [{"smiles": "CCOc1ccc(NC(=O)NC2CCCCC2C)cc1", "note": "(stereo not drawn) [Example C10, 1-(4-ethoxyphenyl)-3-(2-methylcyclohexyl)urea]", "Ec50 ratio (vs MSG)": 2.1}]}, {"target": "T1, hT1R1/hT1R3 umami receptor", "experiment": "Umami taste enhancement activity assay (EC50 ratio vs. MSG)", "format": "cell-based", "details": "Table D; compound @ 1 uM", "experimental": "as §1, §2, §3", "values": [{"smiles": "CCCC(CCC)NC(=O)/C=C/c1cccs1", "note": "[Example D6, N-(1-Propyl-butyl)-3-thiophen-2-yl-acrylamide]", "Ec50 ratio (vs. MSG)": 6.3}]}, {"target": "T1, hT1R1/hT1R3 umami receptor", "experiment": "Umami taste enhancement activity assay (EC50 ratio vs. MSG)", "format": "cell-based", "details": "compound present at 0.01 μM", "experimental": "as §1, §2, §3", "values": [{"smiles": "COC(=O)[C@@H](CC(C)C)NC(=O)c1ccc(OC)c(Cl)c1", "note": "[Example 62, (R)-methyl 2-(3-chloro-4-methoxybenzamido)-4-methylpentanoate]", "EC50 ratio (enhanced the effectiveness of monosodium glutamate)": 13.18}]}, {"target": "T1, hT1R1/hT1R3 umami receptor", "experiment": "Umami taste enhancement activity assay (EC50 ratio vs. MSG)", "format": "cell-based", "details": "compound present at 0.03 μM", "experimental": "as §1, §2, §3", "values": [{"smiles": "CCCC(CCC)NC(=O)c1ccc2c(c1)OC(C)O2", "note": "(stereo not drawn) [Example 18, N-(heptan-4-yl)-2-methylbenzo[d][1,3]dioxole-5-carboxamide]", "EC50 ratio (enhanced the effectiveness of monosodium glutamate)": 3.68}]}, {"target": "T1, hT1R1/hT1R3 umami receptor", "experiment": "Umami taste enhancement activity assay (EC50 ratio vs. MSG)", "format": "cell-based", "details": "compound present at 0.3 μM", "experimental": "as §1, §2, §3", "values": [{"smiles": "O=C(NC1CCCc2ccccc21)c1ccc2c(c1)OCO2", "note": "(stereo not drawn) [Example 7, N-(1,2,3,4-tetrahydronaphthalen-1-yl)benzo[d][1,3]dioxole-5-carboxamide]", "EC50 ratio (enhanced the effectiveness of monosodium glutamate)": 7.8}, {"smiles": "CCCC(CCC)NC(=O)c1cc2ccccc2o1", "note": "[Example 25, Benzofuran-2-carboxylic(1-propylbutyl)amide]", "EC50 ratio (enhanced the effectiveness of monosodium glutamate)": 2.6}, {"smiles": "CCC(CC)NC(=O)c1ccc(OC)c(Cl)c1", "note": "[Example 61, 3-chloro-4-methoxy-N-(pentan-3-yl)benzamide]", "EC50 ratio (enhanced the effectiveness of monosodium glutamate)": 6.28}, {"smiles": "COc1ccc(C(=O)N[C@H](C)c2ccccc2)cc1Cl", "note": "[Example 63, (R)-3-chloro-4-methoxy-N-(1-phenylethyl)benzamide]", "EC50 ratio (enhanced the effectiveness of monosodium glutamate)": 2.7}, {"smiles": "CCCC(CCC)NC(=O)/C=C/c1ccc(OC)c(OC)c1", "note": "[Example 87, 3-(3,4-Dimethoxy-phenyl)-N-(1-propyl-butyl)-acrylamide]", "EC50 ratio (enhanced the effectiveness of monosodium glutamate)": 2.4}, {"smiles": "Cc1cc(C(=O)NC(C)CCc2ccccc2)ccc1O", "note": "(stereo not drawn) [Example 111, 4-Hydroxy-3-methyl-N-(1-methyl-3-phenyl-propyl)-benzamide]", "EC50 ratio (enhanced the effectiveness of monosodium glutamate)": 7}, {"smiles": "O=C(NC1CCc2ccccc21)c1ccc2c(c1)OCO2", "note": "(stereo not drawn) [Example 118, Benzo[1,3]dioxole-5-carboxylic Acid indan-1-ylamide]", "EC50 ratio (enhanced the effectiveness of monosodium glutamate)": 5.33}, {"smiles": "COc1ccccc1CNC(=O)C(=O)NCCc1ccccn1", "note": "[Example 122, N-(2-Methoxy-benzyl)-N′-(2-pyridin-2-yl-ethyl)-oxalamide]", "EC50 ratio (enhanced the effectiveness of monosodium glutamate)": 18.85}, {"smiles": "CCCC(CCC)NC(=O)Nc1ccc(OC)cc1OC", "note": "[Example 159, 1-(2,4-dimethoxyphenyl)-3-(heptan-4-yl)urea]", "EC50 ratio (enhanced the effectiveness of monosodium glutamate)": 7.61}]}, {"target": "T1, hT1R1/hT1R3 umami receptor", "experiment": "Umami taste enhancement activity assay (EC50 ratio vs. MSG)", "format": "cell-based", "details": "compound present at 1 μM", "experimental": "as §1, §2, §3", "values": [{"smiles": "CC1CCCC(NC(=O)c2ccc3c(c2)OCO3)C1C", "note": "(stereo not drawn) [Example 4, N-(2,3-dimethylcyclohexyl)benzo[d][1,3]dioxole-5-carboxamide]", "EC50 ratio (enhanced the effectiveness of monosodium glutamate)": 8.4}, {"smiles": "CCCC(CCC)NC(=O)c1ccc2c(c1)OC(F)(F)O2", "note": "[Example 22, 2,2-difluoro-N-(heptan-4-yl)benzo[d][1,3]dioxole-5-carboxamide]", "EC50 ratio (enhanced the effectiveness of monosodium glutamate)": 2.87}, {"smiles": "CCCC(CCC)NC(=O)c1ccc(OC)cc1C#N", "note": "[Example 97, 2-cyano-N-(heptan-4-yl)-4-methoxybenzamide]", "EC50 ratio (enhanced the effectiveness of monosodium glutamate)": 4.52}, {"smiles": "Cc1ccc(CCNC(=O)c2occc2C)cc1", "note": "[Example 120, 3-methyl-N-(p-tolylethyl)furan-2-carboxamide]", "EC50 ratio (enhanced the effectiveness of monosodium glutamate)": 3.3}, {"smiles": "COc1ccc(CNC(=O)c2ccccc2-n2cccc2)c(OC)c1", "note": "[Example 121, N-(2,4-dimethoxybenzyl)-2-(1H-pyrrol-1-yl)benzamide]", "EC50 ratio (enhanced the effectiveness of monosodium glutamate)": 11}, {"smiles": "CCCC(CCC)NC(=O)Nc1ccccc1Cl", "note": "[Example 158]", "EC50 ratio (enhanced the effectiveness of monosodium glutamate)": 4.95}, {"smiles": "CCOc1ccc(NC(=O)NCCc2ccccn2)cc1", "note": "[Example 160, 1-(4-ethoxyphenyl)-3-(2-(pyridine-2-yl)ethyl)urea]", "EC50 ratio (enhanced the effectiveness of monosodium glutamate)": 4.2}]}, {"target": "T1, hT1R1/hT1R3 umami receptor", "experiment": "Umami taste enhancement activity assay (EC50 ratio vs. MSG)", "format": "cell-based", "details": "compound present at 3 μM", "experimental": "as §1, §2, §3", "values": [{"smiles": "CC(C)C[C@H](CO)NC(=O)c1ccc2c(c1)OCO2", "note": "[Example 8, (R)—N-(1-hydroxy-4-methylpentan-2-yl)benzo[d][1,3]dioxole-5-carboxamide]", "EC50 ratio (enhanced the effectiveness of monosodium glutamate)": 2}, {"smiles": "CCCC(COC(C)=O)NC(=O)c1ccc2c(c1)OCO2", "note": "(stereo not drawn) [Example 14, 2-(benzo[d][1,3]dioxole-6-carboxamido)pentyl Acetate]", "EC50 ratio (enhanced the effectiveness of monosodium glutamate)": 4.1}, {"smiles": "CCCC(CCC)NC(=O)c1ccc2c(c1)OC(CC(=O)OCC)O2", "note": "(stereo not drawn) [Example 19, Ethyl 2-(5-(heptan-4-ylcarbamoyl)benzo[d][1,3]dioxol-2-yl)acetate]", "EC50 ratio (enhanced the effectiveness of monosodium glutamate)": 2.5}, {"smiles": "CCCC(CCC)NC(=O)c1ccc2c(c1)OC(C(C)C)O2", "note": "(stereo not drawn) [Example 21, N-(heptan-4-yl)-2-isopropylbenzo[d][1,3]dioxole-5-carboxamide]", "EC50 ratio (enhanced the effectiveness of monosodium glutamate)": 2.2}, {"smiles": "O=C(NCc1ccc(OC(F)(F)F)cc1)c1ccsc1", "note": "[Example 107, Thiophene-3-carboxylic acid 4-trifluoromethoxy-benzylamide]", "EC50 ratio (enhanced the effectiveness of monosodium glutamate)": 8.5}, {"smiles": "COc1ccc(CNC(=O)c2sccc2C)c(OC)c1", "note": "[Example 108, 3-Methyl-thiophene-2-carboxylic Acid 2,4-dimethoxy-benzylamide]", "EC50 ratio (enhanced the effectiveness of monosodium glutamate)": 5.8}, {"smiles": "COc1ccc(CNC(=O)c2ccc(-c3ccccn3)s2)c(OC)c1", "note": "[Example 109, 5-Pyridin-2-yl-thiophene-2-carboxylic Acid 2,4-dimethoxy-benzylamide]", "EC50 ratio (enhanced the effectiveness of monosodium glutamate)": 8}, {"smiles": "COc1ccc(CNC(=O)c2ccnn2C)c(OC)c1", "note": "[Example 110, 2-Methyl-2H-pyrazole-3-carboxylic Acid 2,4-dimethoxy-benzylamide]", "EC50 ratio (enhanced the effectiveness of monosodium glutamate)": 7.9}]}]}
